Four compounds from US7122666B2, “Heteroaryl-substituted pyrrole derivatives, their preparation and their therapeutic uses” (Sankyo Company, Limited, priority 1999, dated 2006) can be followed below.

The test system of assay [1] is IL-1β production in human whole blood. Put plainly: Inhibition of the production of IL-1β in vitro in human whole blood (Test Examples 1 and 1′). The assay is classed as cell-based. To be noted: Table 8′, lipopolysaccharide 10 μg/ml, 6 hours at 37° C., plasma IL-1β by ELISA, least squares, read-out: Inhibitory Effect on IL-1β Production (in vitro) IC50. The procedure: (§1) Inhibition of the Production of the Cytokines IL-1β and TNFα in Vitro in Human Whole Blood
(§2) This test was performed according to the method of Hartman, et al. [D. A. Hartman, S. J. Ochalski and R. P. Carlson; The effects of anti-inflammatory and antiallergic drugs on cytokine release after stimulation of human whole blood by lipopolysaccharide and zymosan A: Inflamm. Res., 44, 269 (1995)].
(§3) Peripheral blood samples were collected in the presence of heparin from healthy adult volunteers. 1000 μl of whole blood were added to an Eppendorf tube to which 2 μl of a dimethyl sulfoxide solution of the test compound had been added in advance, after which 10 μl of lipopolysaccharide (E. coli 026: B6 origin, Difco) were added as a stimulant (final concentration of said lipopolysaccharide: 10 μg/ml). This was mixed well and then incubated for 6 hours at 37° C. in the presence of 5% CO2. At the end of the incubation, the mixture was cooled to 4° C. to stop the reaction, followed immediately by centrifuging for 5 minutes at 14,000 rpm to separate and collect the supernatant plasma. The IL-1β and TNFα produced and released into the plasma were measured using a commercially available enzyme immunoassay (ELISA) kit [Cayman (IL-1β) and Genzyme (TNFα)]. The procedure was also repeated in the absence of test compound. The inhibitory effect [IC50 (μM)] on the production of IL-1β and TNFα was determined from the amounts of the cytokines produced in the presence and absence of the test compound.
(§4) Inhibition of the Production of the Cytokines IL-1β and TNFα In Vitro in Human Whole Blood
as §3, with “O26:” for “026:”, “plasma” for “plasma.”, “kits” for “kit”, “determined by the method of least squares” for “determined”
(ELISA stands for enzyme-linked immunosorbent assay.)

The subject of a further assay is TNFα production. Put plainly: Inhibition of the production of TNFα in vivo (Test Examples 2 and 2′). To be noted: Table 9′; Balb/c mice, oral administration 30 minutes before intravenous lipopolysaccharide, plasma TNFα 1 hour after LPS. The procedure:
This test was performed according to the method of Ochalski, et al. [S. J. Ochalski, D. A. Hartman, M. T. Belfast, T. L. Walter, K. B. Glaser and R. P. Carlson; Inhibition of endotoxin-induced hypothermia and serum TNF-α levels in CD-1 mice by various pharmacological agents: Agents Actions 39, C52–C54 (1993)].
The production of TNFα was induced in mice by the intravenous injection of lipopolysaccharide (E. coli O26: B6 origin, Difco) which was prepared to a concentration of 0.045 mg/ml using physiological saline. The saline preparation of lipopolysaccharide was administered at the rate of 10 ml/l kg of body weight into the caudal vein of Balb/c mice (males, age 5–7 weeks, body weight: approx. 22 g, Japan Charles River) which had been fasted overnight starting on the day before the experiment. One hour after administration, the mice were laparotomized under ether anaesthesia and blood was collected from the abdominal vena cava. Blood collection was performed using a 1 ml volume disposable syringe equipped with a 23G needle which had been moistened with heparin on the inside wall. Following blood collection, the blood was immediately transferred to a 1.5 ml volume Eppendorf tube and centrifuged at 4° C. and 14,000 rpm to separate the plasma. This plasma was then stored at −20° C. until measurement of TNFα. The measurement of the amount of TNFα was performed with a commercially available enzyme immunoassay (ELISA) kit (Mouse TNFα ELISA KIT, Genzyme).
To determine the inhibitory activity of the test compounds, each test compound was suspended in a 0.5% tragacanth solution and then administered orally to the Balb/c mice at the rate of 10 ml/1 kg of body weight 30 minutes before injection of lipopolysaccharide. The level of TNFα production was then determined as described above. In the control group, 0.5% tragacanth solution was administered at the rate of 10 ml/1 kg of body weight to the test mice instead of the solutions of the test compounds. A minimum of 3 dose levels of the test compound was administered to groups of 5 test mice for each test compound. The inhibitory rate relative to the control group was calculated for each dose level. From the inhibitory rates and the dosages, ID50 values were calculated by the least squares method.
The production of TNFα was induced in mice by the intravenous injection of lipopolysaccharide (E. coli O26: B6 origin, Difco) which was prepared to a concentration of 0.045 mg/ml using physiological saline. […]
To determine the inhibitory activity of the test compounds, each test compound was suspended in a 0.5% tragacanth solution and then administered orally to the Balb/c mice at the rate of 10 ml/1 kg of body weight 30 minutes before injection of lipopolysaccharide. The level of TNFα production was then determined as described above. […]

Assay [2] concerns TNFα production in human whole blood. Kind of assay: Inhibition of the production of TNFα in vitro in human whole blood (Test Examples 1 and 1′). The assay is classed as cell-based. Conditions: Table 7′, lipopolysaccharide 10 μg/ml, 6 hours at 37° C., plasma TNFα by ELISA, least squares, read-out: Inhibitory Effect on TNFα Production (in vitro) IC50. The procedure: as §1, §2, §3, §4
as §3, with “O26:” for “026:”, “plasma” for “plasma.”, “kits” for “kit”, “determined by the method of least squares” for “determined”

Assay [3] concerns adjuvant-induced arthritis. Kind of assay: Activity in preventing the development of adjuvant-induced arthritis in vivo (Test Examples 4 and 4′). Conditions: Table 10′; Lewis rat, oral once a day from day 0 to day 20, inhibition of swelling of injected foot on day 21. The method, then: The test was performed according to the method described by Winder et al. (Arthritis Rheum., 12, 472–482, 1969). Heat-killed dried Mycobacterium butyricum (Difco Laboratories, Lot 679123) was ground on an agate mortar, and was then suspended in dry-sterilised liquid paraffin (first grade, Wako Pure Chemical Industries, Ltd.) to make a 2 ml suspension. The resulting suspension was then sonicated and used as an adjuvant. Arthritis was induced by the intradermal injection of the adjuvant (100 μg of heat killed dried bacterium/0.05 ml of paraffin/paw) into the heel of the right hind paw of a Lewis rat (male, age 8 weeks, Japan Charles River). […] The volumes of the swollen feet (adjuvant-injected right hind foot volume—non-injected left hind foot volume) were calculated. The percent inhibition of swelling of the injected foot of the treated animals as compared to that of the control animals on day 21 was calculated as follows. […] ID50 values were calculated using this curve. […] […]

`CC1=CC2C=C(c3c[nH]c(-c4ccc(F)cc4)c3-c3ccncc3)CCN2C1` (stereo in doubt) [Example 31′, 2-(4-Fluorophenyl)-4-[(8aS)-2-methyl-3,5,6,8a-tetrahydroindolizin-7-yl]-3-(pyridin-4-yl)-1H-pyrrole]: the figures for the IC50 in assay [1] and in assay [2] were 4.6 nM and 2.4 nM, respectively. Besides, in the assay on TNFα production, the “Inhibitory Effect on TNFα Production (in vivo) IC50” value came out at 0.36 mg/kg.
`Fc1ccc(-c2[nH]cc(C3=C[C@@H]4C[C@H](c5ccccc5)CN4CC3)c2-c2ccncc2)cc1` [Example 12′, 2-(4-Fluorophenyl)-4-[(2R,8aS)-2-phenyl-1,2,3,5,6,8a-hexahydroindolizin-7-yl]-3-(pyridin-4-yl)-1H-pyrrole]: the “Activity in Preventing the Development of Adjuvant-Induced Arthritis in vivo IC50” value in assay [3] is on record as 2.1 mg/kg. Besides, the IC50 (in general, the concentration that inhibits the measured activity by half) in assay [1] turned out to be 2.6 nM; in assay [2] it was 2.5 nM.
On to `CC[C@H]1C[C@H]2C=C(c3c[nH]c(-c4ccc(F)cc4)c3-c3ccncc3)CCN2C1` [Example 32′, 4-[(2S,8aS)-2-Ethyl-1,2,3,5,6,8a-hexahydroindolizin-7-yl)-2-(4-fluorophenyl)-3-(pyridin-4-yl)-1H-pyrrole], for which the IC50 was found to be 2.7 nM in assay [1] and 4.5 nM in assay [2]. For the same compound, the “Inhibitory Effect on TNFα Production (in vivo) IC50” value in the assay with TNFα production is listed as 0.61 mg/kg.
For `CCC[C@H]1C[C@H]2C=C(c3c[nH]c(-c4ccc(F)cc4)c3-c3ccncc3)CCN2C1` [Example 43′, 2-(4-Fluorophenyl)-4-[(2S,8aS)-2-propyl-1,2,3,5,6,8a-hexahydroindolizin-7-yl]-3-(pyridin-4-yl)-1H-pyrrole], in that order: 8 nM, 6 nM and 0.40 mg/kg.
